Reference: ChEMBL document CHEMBL1909046, “DrugMatrix in vitro pharmacology data”

What was measured:
[1] = target: Carbonic anhydrase 2 (Homo sapiens, UniProt P00918); experiment: DRUGMATRIX: Carbonic Anhydrase II enzyme inhibition (substrate: 4-Nitrophenyl acetate (4-NPA)); type: tissue-based, Erythrocyte; settings: Not Active = under 50% inhibition at 10 µM
[2] = target: T1, Muscarinic acetylcholine receptor M5 (Homo sapiens, UniProt P08912); type: cell membranes, CHO-K1, Membrane; further: in other assays of this panel Not Active means under 50% inhibition at 10 µM
T1 sequence (P08912 whole entry): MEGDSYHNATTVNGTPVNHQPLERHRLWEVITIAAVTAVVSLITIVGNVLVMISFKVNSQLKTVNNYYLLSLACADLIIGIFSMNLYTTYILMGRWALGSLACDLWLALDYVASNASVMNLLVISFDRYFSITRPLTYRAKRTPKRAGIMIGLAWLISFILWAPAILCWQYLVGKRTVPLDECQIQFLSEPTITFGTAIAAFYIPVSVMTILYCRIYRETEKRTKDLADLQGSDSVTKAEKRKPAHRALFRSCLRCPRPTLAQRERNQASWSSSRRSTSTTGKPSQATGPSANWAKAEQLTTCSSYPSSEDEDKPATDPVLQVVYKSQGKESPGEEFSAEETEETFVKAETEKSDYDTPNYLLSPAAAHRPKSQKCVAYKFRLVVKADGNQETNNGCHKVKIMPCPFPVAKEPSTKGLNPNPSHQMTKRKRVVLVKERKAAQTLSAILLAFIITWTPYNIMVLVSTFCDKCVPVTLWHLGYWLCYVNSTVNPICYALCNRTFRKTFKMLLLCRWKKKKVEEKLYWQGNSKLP

[3] = target: T2, Neuropeptide Y receptor type 1 (Homo sapiens, UniProt P25929); type: cell membranes, Membrane; settings: sk-n-mc; further: in other assays of this panel Not Active means under 50% inhibition at 10 µM
T2 sequence (P25929 whole entry): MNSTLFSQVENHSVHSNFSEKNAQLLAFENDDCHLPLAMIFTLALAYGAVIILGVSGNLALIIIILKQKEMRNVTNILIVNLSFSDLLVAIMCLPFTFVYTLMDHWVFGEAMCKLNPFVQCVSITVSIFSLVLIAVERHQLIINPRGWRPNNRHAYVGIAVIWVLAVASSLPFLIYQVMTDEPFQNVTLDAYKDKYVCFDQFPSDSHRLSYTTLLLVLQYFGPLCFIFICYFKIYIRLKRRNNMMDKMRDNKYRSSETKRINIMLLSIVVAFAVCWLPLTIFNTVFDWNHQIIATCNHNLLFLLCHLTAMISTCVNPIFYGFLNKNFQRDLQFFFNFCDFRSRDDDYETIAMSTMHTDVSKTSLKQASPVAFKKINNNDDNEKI

[4] = target: Tyrosine-protein kinase Fyn (Homo sapiens, UniProt P06241); experiment: biochemical; type: cell-based, Insect cells;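 further: enzymatic inhibition of Fyn kinase activity measured with Poly(Glu:Tyr) as the phosphorylation substrate; in other assays of this panel Not Active means under 50% inhibition at 10 µM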
Sequence of Tyrosine-protein kinase Fyn (P06241 whole entry): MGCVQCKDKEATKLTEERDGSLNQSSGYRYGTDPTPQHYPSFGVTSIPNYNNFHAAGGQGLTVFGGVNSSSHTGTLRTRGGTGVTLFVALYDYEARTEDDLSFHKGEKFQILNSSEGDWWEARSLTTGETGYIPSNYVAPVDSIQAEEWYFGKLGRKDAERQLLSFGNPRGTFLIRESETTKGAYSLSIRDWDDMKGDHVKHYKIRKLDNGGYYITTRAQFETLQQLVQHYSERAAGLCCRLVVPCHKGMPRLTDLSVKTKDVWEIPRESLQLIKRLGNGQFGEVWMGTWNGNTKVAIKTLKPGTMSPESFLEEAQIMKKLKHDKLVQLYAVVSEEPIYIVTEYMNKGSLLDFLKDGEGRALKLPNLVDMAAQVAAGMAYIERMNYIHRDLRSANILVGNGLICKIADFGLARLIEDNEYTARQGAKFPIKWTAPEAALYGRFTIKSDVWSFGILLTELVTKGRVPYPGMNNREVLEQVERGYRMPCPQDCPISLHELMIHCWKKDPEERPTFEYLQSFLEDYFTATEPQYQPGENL

[5] = target: T3, Muscarinic acetylcholine receptor M4 (Homo sapiens, UniProt P08173); type: cell membranes, CHO-K1, Membrane; further: in other assays of this panel Not Active means under 50% inhibition at 10 µM
T3 sequence (P08173 whole entry): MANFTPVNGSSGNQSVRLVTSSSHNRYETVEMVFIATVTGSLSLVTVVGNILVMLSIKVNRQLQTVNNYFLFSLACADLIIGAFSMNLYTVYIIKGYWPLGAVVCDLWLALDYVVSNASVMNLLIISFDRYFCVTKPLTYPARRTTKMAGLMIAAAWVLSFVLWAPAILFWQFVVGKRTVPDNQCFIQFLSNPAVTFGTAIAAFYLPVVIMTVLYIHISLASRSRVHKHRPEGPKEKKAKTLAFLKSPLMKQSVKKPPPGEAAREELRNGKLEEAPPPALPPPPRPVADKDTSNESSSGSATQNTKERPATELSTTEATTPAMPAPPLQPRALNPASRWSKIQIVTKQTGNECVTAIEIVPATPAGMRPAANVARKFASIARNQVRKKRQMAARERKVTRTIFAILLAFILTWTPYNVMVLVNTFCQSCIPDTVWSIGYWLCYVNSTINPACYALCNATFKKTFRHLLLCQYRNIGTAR

[6] = target: T4, Substance-K receptor (Homo sapiens, UniProt P21452); type: cell membranes, CHO, Membrane; further: in other assays of this panel Not Active means under 50% inhibition at 10 µM
T4 sequence (P21452 whole entry): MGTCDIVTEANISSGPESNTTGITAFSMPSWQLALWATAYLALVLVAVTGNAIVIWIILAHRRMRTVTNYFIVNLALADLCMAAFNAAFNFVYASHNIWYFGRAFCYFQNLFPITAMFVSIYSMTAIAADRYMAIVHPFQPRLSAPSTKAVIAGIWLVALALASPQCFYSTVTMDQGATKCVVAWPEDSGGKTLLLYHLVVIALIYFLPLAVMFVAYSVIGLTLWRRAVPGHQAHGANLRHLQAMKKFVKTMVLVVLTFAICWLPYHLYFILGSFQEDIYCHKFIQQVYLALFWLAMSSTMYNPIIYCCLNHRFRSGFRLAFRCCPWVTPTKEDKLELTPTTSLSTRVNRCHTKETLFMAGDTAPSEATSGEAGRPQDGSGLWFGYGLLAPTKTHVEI

[7] = target: Mu-type opioid receptor (Homo sapiens, UniProt P35372); experiment: DRUGMATRIX: Opiate mu (OP3, MOP) radioligand binding (ligand: [3H] Diprenorphine); type: cell membranes, CHO-K1, Membrane; settings: cho-k1; Not Active = under 50% inhibition at 10 µM
Sequence of Mu-type opioid receptor (P35372 whole entry): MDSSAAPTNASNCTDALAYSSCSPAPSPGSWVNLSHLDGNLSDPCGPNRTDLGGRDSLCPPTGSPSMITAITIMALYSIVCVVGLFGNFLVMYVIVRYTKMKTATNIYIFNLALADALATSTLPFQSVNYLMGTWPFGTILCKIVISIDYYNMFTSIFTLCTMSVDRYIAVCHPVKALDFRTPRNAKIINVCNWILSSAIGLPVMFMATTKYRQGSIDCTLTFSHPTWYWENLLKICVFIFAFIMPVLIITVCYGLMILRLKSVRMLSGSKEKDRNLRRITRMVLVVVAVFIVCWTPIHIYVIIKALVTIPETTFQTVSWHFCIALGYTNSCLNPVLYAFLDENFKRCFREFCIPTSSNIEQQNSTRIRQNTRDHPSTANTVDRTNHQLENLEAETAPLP

[8] = target: Histamine H2 receptor (Homo sapiens, UniProt P25021); type: cell membranes, CHO-K1, Membrane; further: in other assays of this panel Not Active means under 50% inhibition at 10 µM
Sequence of Histamine H2 receptor (P25021 whole entry): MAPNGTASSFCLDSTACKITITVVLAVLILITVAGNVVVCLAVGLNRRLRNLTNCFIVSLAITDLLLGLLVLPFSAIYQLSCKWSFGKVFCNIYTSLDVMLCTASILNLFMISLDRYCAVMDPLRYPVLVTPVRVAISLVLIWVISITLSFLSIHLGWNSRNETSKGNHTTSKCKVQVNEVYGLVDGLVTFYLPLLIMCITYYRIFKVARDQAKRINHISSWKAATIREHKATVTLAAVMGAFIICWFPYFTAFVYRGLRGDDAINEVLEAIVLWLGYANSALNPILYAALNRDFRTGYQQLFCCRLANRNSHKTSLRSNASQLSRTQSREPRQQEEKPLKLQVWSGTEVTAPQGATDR

[9] = target: Sodium-dependent dopamine transporter (Homo sapiens, UniProt Q01959); experiment: DRUGMATRIX: Dopamine Transporter radioligand binding (ligand: [125I] RTI-55); type: cell membranes, CHO-K1, Membrane; settings: Not Active = under 50% inhibition at 10 µM
Sequence of Sodium-dependent dopamine transporter (Q01959 whole entry): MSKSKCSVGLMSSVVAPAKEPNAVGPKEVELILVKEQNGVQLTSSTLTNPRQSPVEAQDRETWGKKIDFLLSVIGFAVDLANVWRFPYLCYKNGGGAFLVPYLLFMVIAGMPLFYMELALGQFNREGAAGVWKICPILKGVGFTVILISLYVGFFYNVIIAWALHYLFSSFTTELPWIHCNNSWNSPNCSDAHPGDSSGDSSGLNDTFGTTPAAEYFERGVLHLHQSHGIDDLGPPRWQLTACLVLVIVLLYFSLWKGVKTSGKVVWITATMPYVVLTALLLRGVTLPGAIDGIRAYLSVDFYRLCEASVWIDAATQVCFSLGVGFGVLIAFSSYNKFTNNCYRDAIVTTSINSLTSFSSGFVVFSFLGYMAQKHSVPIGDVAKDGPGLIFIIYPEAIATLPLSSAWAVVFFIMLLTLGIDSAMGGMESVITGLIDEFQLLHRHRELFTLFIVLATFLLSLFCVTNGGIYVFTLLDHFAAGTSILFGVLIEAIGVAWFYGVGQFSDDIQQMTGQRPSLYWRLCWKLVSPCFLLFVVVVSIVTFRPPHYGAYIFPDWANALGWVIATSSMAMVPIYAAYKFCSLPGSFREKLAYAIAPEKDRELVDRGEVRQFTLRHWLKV

[10] = DRUGMATRIX: Nicotinic Acetylcholine radioligand binding (ligand: [125I] Epibatidine); type: cell membranes, Membrane; settings: imr-32; Not Active = under 50% inhibition at 10 µM
[11] = DRUGMATRIX: Phosphodiesterase PDE4 enzyme inhibition (substrate: [3H]cAMP + cAMP); settings: u-937; Not Active = under 50% inhibition at 10 µM
[12] = DRUGMATRIX: Glutamate, NMDA, Agonism radioligand binding (ligand: [3H] CGP-39653); type: cell membranes, Rattus norvegicus, Wistar, Cerebral cortex, Membrane; settings: Not Active = under 50% inhibition at 10 µM
[13] = DRUGMATRIX: Serotonin (5-Hydroxytryptamine) 5-HT3 radioligand binding (ligand: [3H] GR-65630); type: cell membranes, Membrane; settings: hek293; Not Active = under 50% inhibition at 10 µM

Molecule	IC50 ([1]; erythrocyte)	IC50 [3]	IC50 ([4]; read-out: IC50) [µM]	Ki ([5]; read-out: Ki) [µM]	IC50 [7]	IC50 ([4]; insect cells)	IC50 ([6]; cho)	IC50 ([5]; cho-k1)	IC50 ([9]; cho-k1)	IC50 ([8]; cho-k1)	IC50 [10]	Ki [10]	IC50 ([2]; cho-k1)	IC50 [11]	Ki [11]	IC50 [12]	Ki [12]	IC50 [13]	Ki [13]	also measured
COc1ccc(CCN2CCC(Nc3nc4ccccc4n3Cc3ccc(F)cc3)CC2)cc1 [ASTEMIZOLE]	Not Active	Not Active	2.85	0.259																IC50 ([2]; read-out: IC50): 0.703 µM; Ki ([2]; read-out: Ki): 0.505 µM; IC50 ([5]; read-out: IC50): 1.86 µM; IC50 ([6]; read-out: IC50): 2.99 µM; Ki ([6]; read-out: Ki): 0.995 µM
CN(C)CCCN1c2ccccc2CCc2ccc(Cl)cc21 [CLOMIPRAMINE]	Not Active	Not Active		0.013	Not Active	Not Active	Not Active													IC50 ([2]; read-out: IC50): 0.053 µM; Ki ([2]; read-out: Ki): 0.038 µM; IC50 ([8]; read-out: IC50): 2.05 µM; Ki ([8]; read-out: Ki): 2.02 µM; IC50 ([5]; read-out: IC50): 0.091 µM
Clc1ccccc1C(c1ccccc1)(c1ccccc1)n1ccnc1 [CLOTRIMAZOLE]		Not Active	31.9	1.64																IC50 ([1]; read-out: IC50): 30.1 µM; IC50 ([9]; read-out: IC50): 5.58 µM; Ki ([9]; read-out: Ki): 4.43 µM; IC50 ([8]; read-out: IC50): 5.17 µM; Ki ([8]; read-out: Ki): 5.08 µM; IC50 ([6]; read-out: IC50): 10.1 µM; Ki ([6]; read-out: Ki): 3.38 µM
O=C(CCCN1CCC(O)(c2ccc(Cl)cc2)CC1)c1ccc(F)cc1 [HALOPERIDOL]	Not Active	Not Active				Not Active	Not Active	Not Active												
CN1CCN2c3ccccc3Cc3ccccc3C2C1 (configuration not stated) [MIANSERIN]	Not Active	Not Active		0.288	Not Active	Not Active	Not Active		Not Active											IC50 ([2]; read-out: IC50): 0.32 µM; Ki ([2]; read-out: Ki): 0.23 µM; IC50 ([5]; read-out: IC50): 2.07 µM
CC(C)(O)c1ccccc1CC[C@@H](SCC1(CC(=O)O)CC1)c1cccc(/C=C/c2ccc3ccc(Cl)cc3n2)c1 [MONTELUKAST]	Not Active	Not Active	4.7		Not Active			Not Active		Not Active										IC50 ([6]; read-out: IC50): 3.82 µM; Ki ([6]; read-out: Ki): 1.27 µM
NNc1ccccc1 [PHENYLHYDRAZINE]	Not Active	Not Active				Not Active	Not Active	Not Active	Not Active	Not Active	Not Active	Not Active	Not Active	Not Active	Not Active	Not Active	Not Active	Not Active	Not Active	
O=[N+]([O-])c1cc([As](=O)(O)O)ccc1O [ROXARSONE]	Not Active	Not Active				Not Active	Not Active	Not Active	Not Active	Not Active	Not Active	Not Active	Not Active	Not Active	Not Active	Not Active	Not Active	Not Active	Not Active	Ki ([1]; erythrocyte): Not Active; Ki ([9]; cho-k1): Not Active; Ki ([2]; cho-k1): Not Active; Ki ([8]; cho-k1): Not Active; Ki [3]: Not Active; Ki ([4]; insect cells): Not Active; Ki ([5]; cho-k1): Not Active; Ki ([6]; cho): Not Active
Nc1ccc(S(N)(=O)=O)cc1 [SULFANILAMIDE]		Not Active			Not Active	Not Active	Not Active	Not Active	Not Active	Not Active	Not Active	Not Active	Not Active	Not Active	Not Active	Not Active	Not Active	Not Active	Not Active	
CSc1ccc2c(c1)N(CCC1CCCCN1C)c1ccccc1S2 (configuration not stated) [THIORIDAZINE]	Not Active	Not Active	5.05		Not Active		Not Active													
COc1cccc(C2(O)CCCCC2CN(C)C)c1 (configuration not stated) [TRAMADOL]	Not Active	Not Active				Not Active	Not Active	Not Active	Not Active	Not Active			Not Active							
COc1ccc(C(CN(C)C)C2(O)CCCCC2)cc1 (configuration not stated) [VENLAFAXINE]	Not Active	Not Active				Not Active	Not Active	Not Active	Not Active	Not Active	Not Active	Not Active	Not Active	Not Active	Not Active	Not Active	Not Active	Not Active	Not Active	
IVERMECTIN	Not Active	Not Active				Not Active	Not Active	Not Active		Not Active	Not Active	Not Active		Not Active	Not Active	Not Active	Not Active	Not Active	Not Active	Ki ([1]; erythrocyte): Not Active; IC50 ([9]; cho-k1, read-out: IC50): 4.46 µM; Ki ([9]; cho-k1, read-out: Ki): 3.54 µM; IC50 ([2]; cho-k1, read-out: IC50): 3.61 µM; Ki ([2]; cho-k1, read-out: Ki): 2.59 µM; Ki ([8]; cho-k1): Not Active; Ki [3]: Not Active; Ki ([4]; insect cells): Not Active; Ki ([5]; cho-k1): Not Active; Ki ([6]; cho): Not Active
